Source: patent US9221834B2 (Merck Sharp & Dohme Corp., priority 2010, dated 2015)

Each molecule was assayed against T1, recombinant CETP (rCETP) (Homo sapiens, UniProt P11597) (assay: RTA assay using recombinant CETP (2% RTA)). Conditions: RTA assay in 2% human serum; read-out: IC50.
T1 sequence (P11597 18-493): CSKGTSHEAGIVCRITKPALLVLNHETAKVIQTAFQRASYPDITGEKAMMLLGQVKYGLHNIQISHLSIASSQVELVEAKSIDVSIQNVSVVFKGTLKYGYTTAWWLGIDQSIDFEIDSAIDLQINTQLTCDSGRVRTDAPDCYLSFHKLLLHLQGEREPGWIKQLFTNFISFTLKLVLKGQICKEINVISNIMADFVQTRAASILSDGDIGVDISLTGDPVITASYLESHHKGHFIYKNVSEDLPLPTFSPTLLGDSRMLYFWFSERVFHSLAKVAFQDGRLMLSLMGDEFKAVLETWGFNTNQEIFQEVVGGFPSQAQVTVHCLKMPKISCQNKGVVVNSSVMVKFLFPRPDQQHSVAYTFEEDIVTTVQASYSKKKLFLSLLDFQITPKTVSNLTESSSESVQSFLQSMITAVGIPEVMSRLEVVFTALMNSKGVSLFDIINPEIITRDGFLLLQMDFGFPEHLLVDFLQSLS
Format: biochemical
Description: In Vitro Radioactive Assays of CETP-Catalyzed CE and TG Transfer (RTA Assay)
Reagents and sources are: [3H] cholesteryl oleate (GE #TRK.886), [3H]
Both assays measure the transfer of [3H] cholesteryl oleate or [3H]triolein from exogenous LDL to HDL.
After a brief vortex, the solution is sonicated until clear and mixed with 20 mL of fresh human serum. The mixture is incubated overnight at 37° C. […] Once isolated the particles are dialyzed 3× in CETP buffer (50 mM Tris, pH 7.4, 100 mM NaCl, 1 mM EDTA). Human HDL is purchased from Intracel and used as the acceptor particles.
Transfer assays are performed in a 96-well v-bottom polypropylene plate. […] 1 μL of each test compound diluted in DMSO is added to 47 μL of assay cocktail per well and incubated at 37° C. for 1 hour. To initiate the transfer reaction, 2 μL radiolabeled LDL is added. After an additional 60 min of incubation at 37° C., the transfer action is terminated by precipitation of LDL with an equal volume of 20% W/V PEG 8000. The plates are centrifuged at 2000 rpm for 30 minutes at 4° C. A 40 μL aliquot of the HDL-containing supernatant is transferred to a Packard Optiplate with 200 μL of MicroScint 20. After mixing, plates are counted by liquid scintillation. Counts present in the supernatant for blanks (wells containing only HDL acceptor, CETP buffer and DMSO) are subtracted from those containing test compounds and used to correct for non-specific transfer.
Comparison of the counts of samples with inhibitors to an uninhibited (DMSO only) positive control yield a percent inhibition. A plot of percent inhibition vs. log of inhibitor concentration, fit to a Sigmoidal 4 parameter equation is used to calculate IC50.

Row | Structure (SMILES) | IC50
1 | COc1ccc([C@H]2CC[C@H](C(=O)O)CC2)cc1-c1ccc(N2CCC2)nc1CN1C(=O)O[C@H](c2cc(C(F)(F)F)cc(C(F)(F)F)c2)[C@@H]1C [Example 73] | 8 nM
2 | C[C@H]1[C@@H](c2cc(C(F)(F)F)cc(C(F)(F)F)c2)OC(=O)N1Cc1nc(N2CCC2)ccc1-c1cc(CCC(=O)O)ccc1Cl [Example 74] | 9 nM
3 | COc1ccc([C@H]2C[C@@H]2C(=O)O)cc1-c1ccc(N2CCC2)nc1CN1C(=O)O[C@H](c2cc(C(F)(F)F)cc(C(F)(F)F)c2)[C@@H]1C [Example 75] | 9 nM
4 | COc1ccc(CC(=O)O)cc1-c1c(C)cc(N2CCC2)nc1CN1C(=O)O[C@H](c2cc(C(F)(F)F)cc(C(F)(F)F)c2)[C@@H]1C [Example 76] | 14 nM
5 | COc1ccc(C(C)(C)CC(=O)O)cc1-c1ccc(N2CCC2)nc1CN1C(=O)O[C@H](c2cc(C(F)(F)F)cc(C(F)(F)F)c2)[C@@H]1C [Example 77] | 15 nM
6 | COc1cc2c(cc1-c1ccc(N3CCC3)nc1CN1C(=O)O[C@H](c3cc(C(F)(F)F)cc(C(F)(F)F)c3)[C@@H]1C)C(CC(=O)O)CC2 (some centres unmarked) [Example 78] | 18 nM
7 | COc1cc(F)c(CCC(=O)O)cc1-c1ccc(N2CCC2)nc1CN1C(=O)O[C@H](c2cc(C(F)(F)F)cc(C(F)(F)F)c2)[C@@H]1C [Example 79] | 18 nM
8 | COc1ccc(CC(=O)O)cc1-c1ccc(N2CCC2)nc1CN1C(=O)O[C@H](c2cc(C(F)(F)F)cc(C(F)(F)F)c2)[C@@H]1C [Example 80] | 36 nM
9 | COc1ccc([C@H]2CC[C@H](C(=O)O)CC2)cc1-c1ccc(N2CCC2)nc1CN1C(=O)O[C@H](c2ccc(F)c(F)c2)[C@@H]1C [Example 81] | 161 nM
10 | COc1ccc(CCC(=O)O)cc1-c1ccc(N2CCC2)nc1CN1C(=O)O[C@H](c2cc(F)cc(F)c2)[C@@H]1C [Example 82] | 484 nM
11 | COc1ccc([C@@H]2C[C@H]2C(=O)O)cc1-c1ccc(N2CCC2)nc1CN1C(=O)O[C@H](c2cc(F)cc(F)c2)[C@@H]1C [Example 83] | 134 nM
12 | COc1ccc([C@H]2C[C@@H]2C(=O)O)cc1-c1ccc(N2CCC2)nc1CN1C(=O)O[C@H](c2cc(F)cc(F)c2)[C@@H]1C [Example 84] | 73 nM
13 | COc1ccc([C@H]2CC[C@H](C(=O)O)CC2)cc1-c1ccc(N2CCC2)nc1CN1C(=O)O[C@H](c2cc(F)cc(F)c2)[C@@H]1C [Example 85] | 84 nM
14 | COc1cc2c(cc1-c1ccc(N3CCC3)nc1CN1C(=O)O[C@H](c3cc(F)cc(F)c3)[C@@H]1C)[C@H](CC(=O)O)CC2 [Example 86] | 415 nM
15 | COc1cc(F)c(-c2ccc(C(=O)O)cc2C)cc1-c1ccc(N2CCC2)nc1CN1C(=O)O[C@H](c2cc(F)cc(F)c2)[C@@H]1C [Example 87] | 7 nM
16 | CCc1ccc([C@@H]2C[C@H]2C(=O)O)cc1-c1ccc(N2CCC2)nc1CN1C(=O)O[C@H](c2cc(C(F)(F)F)cc(C(F)(F)F)c2)[C@@H]1C [Example 88] | 9 nM
17 | COc1ccc([C@H]2C[C@@H](C(=O)O)C2)cc1-c1ccc(N2CCC2)nc1CN1C(=O)O[C@H](c2cc(C(F)(F)F)cc(C(F)(F)F)c2)[C@@H]1C [Example 89] | 29 nM
18 | COc1ccc([C@H]2C[C@H](C(=O)O)C2)cc1-c1ccc(N2CCC2)nc1CN1C(=O)O[C@H](c2cc(C(F)(F)F)cc(C(F)(F)F)c2)[C@@H]1C [Example 90] | 6 nM
19 | COc1ccc([C@H]2C[C@@H](CC(=O)O)C2)cc1-c1ccc(N2CCC2)nc1CN1C(=O)O[C@H](c2cc(C(F)(F)F)cc(C(F)(F)F)c2)[C@@H]1C [Example 91] | 10 nM
20 | COc1ccc([C@H]2C[C@H](CC(=O)O)C2)cc1-c1ccc(N2CCC2)nc1CN1C(=O)O[C@H](c2cc(C(F)(F)F)cc(C(F)(F)F)c2)[C@@H]1C [Example 92] | 5 nM
21 | COc1ccc(-c2cc(C(=O)O)on2)cc1-c1ccc(N2CCC2)nc1CN1C(=O)O[C@H](c2cc(C(F)(F)F)cc(C(F)(F)F)c2)[C@@H]1C [Example 93] | 18 nM
22 | COc1ccc(-c2nn(C)c(C(=O)O)c2C)cc1-c1ccc(N2CCC2)nc1CN1C(=O)O[C@H](c2cc(C(F)(F)F)cc(C(F)(F)F)c2)[C@@H]1C [Example 94] | 12 nM

Row | Structure (SMILES) | IC50
23 | COc1ccc(-c2cnc(C(=O)O)cn2)cc1-c1ccc(N2CCC2)nc1CN1C(=O)O[C@H](c2cc(C(F)(F)F)cc(C(F)(F)F)c2)[C@@H]1C [Example 95] | 34 nM
24 | COc1ccc([C@H]2C[C@@H](C(=O)O)C2)cc1-c1c(C)cc(N2CCC2)nc1CN1C(=O)O[C@H](c2cc(C(F)(F)F)cc(C(F)(F)F)c2)[C@@H]1C [Example 96] | 8 nM
25 | COc1ccc([C@H]2C[C@H](C(=O)O)C2)cc1-c1c(C)cc(N2CCC2)nc1CN1C(=O)O[C@H](c2cc(C(F)(F)F)cc(C(F)(F)F)c2)[C@@H]1C [Example 97] | 4 nM
26 | COc1ccc(CCC(=O)O)cc1-c1ccc(N2CCC2)nc1CN1C(=O)O[C@H](c2cc(F)c(F)c(F)c2)[C@@H]1C [Example 98] | 223 nM
27 | COc1ccc([C@H]2CC[C@H](C(=O)O)CC2)cc1-c1ccc(N2CCC2)nc1CN1C(=O)O[C@H](c2cc(F)c(F)c(F)c2)[C@@H]1C [Example 101] | 37 nM
28 | COc1cc(F)c(-c2ccc(C(=O)O)cc2C)cc1-c1ccc(N2CCC2)nc1CN1C(=O)O[C@H](c2cc(F)c(F)c(F)c2)[C@@H]1C [Example 102] | 8 nM
29 | COc1cc(F)c([C@H]2C[C@@H](C(=O)O)C2)cc1-c1ccc(N2CCC2)nc1CN1C(=O)O[C@H](c2cc(C(F)(F)F)cc(C(F)(F)F)c2)[C@@H]1C [Example 103] | 31 nM
30 | COc1cc(F)c([C@H]2C[C@H](C(=O)O)C2)cc1-c1ccc(N2CCC2)nc1CN1C(=O)O[C@H](c2cc(C(F)(F)F)cc(C(F)(F)F)c2)[C@@H]1C [Example 104] | 4 nM
31 | COc1ccc(-c2ccc(C(=O)O)s2)cc1-c1ccc(N2CCC2)nc1CN1C(=O)O[C@H](c2cc(C(F)(F)F)cc(C(F)(F)F)c2)[C@@H]1C [Example 105] | 51 nM
32 | COc1ccc(-c2sc(C(=O)O)cc2C)cc1-c1ccc(N2CCC2)nc1CN1C(=O)O[C@H](c2cc(C(F)(F)F)cc(C(F)(F)F)c2)[C@@H]1C [Example 106] | 12 nM
33 | COc1ccc(-c2csc(C(=O)O)c2)cc1-c1ccc(N2CCC2)nc1CN1C(=O)O[C@H](c2cc(C(F)(F)F)cc(C(F)(F)F)c2)[C@@H]1C [Example 107] | 72 nM
34 | COc1ccc(-c2csc(C(=O)O)c2C)cc1-c1ccc(N2CCC2)nc1CN1C(=O)O[C@H](c2cc(C(F)(F)F)cc(C(F)(F)F)c2)[C@@H]1C [Example 108] | 5 nM
35 | COc1ccc(-c2cc(C(=O)O)sc2C)cc1-c1ccc(N2CCC2)nc1CN1C(=O)O[C@H](c2cc(C(F)(F)F)cc(C(F)(F)F)c2)[C@@H]1C [Example 109] | 9 nM
36 | COc1ccc(-c2csc(C(=O)O)c2OC)cc1-c1ccc(N2CCC2)nc1CN1C(=O)O[C@H](c2cc(C(F)(F)F)cc(C(F)(F)F)c2)[C@@H]1C [Example 110] | 44 nM
37 | COc1ccc(-c2sc(C(=O)O)c(C)c2C)cc1-c1ccc(N2CCC2)nc1CN1C(=O)O[C@H](c2cc(C(F)(F)F)cc(C(F)(F)F)c2)[C@@H]1C [Example 111] | 5 nM
38 | COc1ccc(-c2ccc(C(=O)O)o2)cc1-c1ccc(N2CCC2)nc1CN1C(=O)O[C@H](c2cc(C(F)(F)F)cc(C(F)(F)F)c2)[C@@H]1C [Example 112] | 184 nM
39 | COc1ccc(-c2cc(C(=O)O)co2)cc1-c1ccc(N2CCC2)nc1CN1C(=O)O[C@H](c2cc(C(F)(F)F)cc(C(F)(F)F)c2)[C@@H]1C [Example 113] | 29 nM
40 | COc1ccc(-c2ncc(C(=O)O)s2)cc1-c1ccc(N2CCC2)nc1CN1C(=O)O[C@H](c2cc(C(F)(F)F)cc(C(F)(F)F)c2)[C@@H]1C [Example 114] | 50 nM
41 | COc1ccc(-c2nc(C(=O)O)cs2)cc1-c1ccc(N2CCC2)nc1CN1C(=O)O[C@H](c2cc(C(F)(F)F)cc(C(F)(F)F)c2)[C@@H]1C [Example 115] | 285 nM
42 | COc1ccc(-c2nc(C)c(C(=O)O)s2)cc1-c1ccc(N2CCC2)nc1CN1C(=O)O[C@H](c2cc(C(F)(F)F)cc(C(F)(F)F)c2)[C@@H]1C [Example 116] | 77 nM
43 | COc1ccc(-c2ncc(C(=O)O)n2C)cc1-c1ccc(N2CCC2)nc1CN1C(=O)O[C@H](c2cc(C(F)(F)F)cc(C(F)(F)F)c2)[C@@H]1C [Example 117] | 25 nM
44 | COc1ccc(-c2c(C)cc(C(=O)O)n2C)cc1-c1ccc(N2CCC2)nc1CN1C(=O)O[C@H](c2cc(C(F)(F)F)cc(C(F)(F)F)c2)[C@@H]1C [Example 119] | 5 nM
